A short description of this data set: in vitro. As to conditions: human, hela cells, % viability.

Regarding `CN(Cc1cccnc1)C(=O)Cc1ccc(-n2cccn2)cc1` [CBK297726], the viability (in general, a read-out of living cells in per cent, often relative to untreated cells) at 28.5 h, 10 µM came out at 85.6%.

Turning to `Nc1ncc(-c2ccc(-c3ccccc3)cc2)nc1NC1CCCCC1` [CBK063572], the viability at 28.5 h, 10 µM was determined as 87.3%.

For `O=C(Cn1cccc(C(=O)NC2CCCCC2)c1=O)NC1(c2ccccc2)CCCC1` [CBK286059], the viability at 28.5 h, 10 µM was 85.1%.

As to `COc1ccc2cc(CNc3ccc(F)c(F)c3)c(=O)[nH]c2c1` [CBK281934], the viability at 28.5 h, 10 µM turned out to be 83%.

As for `Cc1ccn2c(CN3CCC(n4nc(C)cc4C)CC3)c(C)nc2c1` [CBK281616], the viability at 28.5 h, 10 µM worked out at 83.6%.

Turning to `c1ccc(Nc2nc(-c3ccc(N4CCOCC4)cc3)cn3ccnc23)cc1` [CBK066222], the viability at 28.5 h, 10 µM was found to be 90.4%.

With `CCC(C(=O)Nc1nccs1)N(C)Cc1n[nH]c2c1CCC2` (stereo not drawn) [CBK307685], the viability at 28.5 h, 10 µM amounted to 99%.

`Oc1n[nH]c(-c2ccccc2Cl)c1Cc1c(Cl)cccc1Cl` [CBK107935]: the viability at 28.5 h, 10 µM stood at 84.1%.

`CC(=O)N[C@H]1CC[C@]2(C)CCC([C@H](C)C(=O)N(C)Cc3ccccc3)[C@H](O)[C@H]2[C@@H]1C` (stereo partly drawn) [CBK289435]: the viability at 28.5 h, 10 µM was 110%.

For `COc1cc(/C=C2\SC(=S)N(CC(=O)NNC(=O)c3ccccc3O)C2=O)ccc1O` [CBK261301], the viability at 28.5 h, 10 µM worked out at 94%.

In the case of `O=C(CSc1nnc2ccccn12)Nc1ccccc1` [CBK287328], the viability at 28.5 h, 10 µM turned out to be 109%.

As to `O=C(Nc1ccc2c(c1)nc1n2CCOC1)C1CCCCC1` [CBK307570], the viability at 28.5 h, 10 µM was 90%.

`CC(C)[C@@H](CO)Nc1nc(-c2cccc(Br)c2)cnc1N` [CBK063758]: the viability at 28.5 h, 10 µM was 99.5%.

With `O=C(NCCC1SC(NC2CCCCCC2)=NC1=O)Nc1ccc(C(F)(F)F)cc1Cl` (stereo not drawn) [CBK067682], the viability at 28.5 h, 10 µM was 89.9%.

With `COc1ccc(OC)c(NS(=O)(=O)N(C)C)c1` [CBK005362], the viability at 28.5 h, 10 µM stood at 94.1%.

For the compound `O=C(O)C1Nc2ccc(Oc3ccccc3)cc2C2C=CCC12` (stereo not drawn) [CBK286542], the viability at 28.5 h, 10 µM was found to be 80.8%.

For `C=CCOc1ccccc1CNc1nc[nH]n1` [CBK267234], the viability at 28.5 h, 10 µM came to 93.7%.

On to `COc1ccc(C(=O)Nc2ccccc2N2CCN(C)CC2)cc1Cl` [CBK268001], for which the viability at 28.5 h, 10 µM worked out at 90.5%.

As to `O=C(CCN1C(=O)c2ccccc2C1=O)N(CCO)Cc1ccccc1` [CBK265565], the viability at 28.5 h, 10 µM was determined as 110%.

On to `CCc1nn(CC(=O)NCC2CC2)c(=O)c2cc3sccc3n12` [CBK284055], for which the viability at 28.5 h, 10 µM is 90.5%.

As for `Cc1occc1-c1nnc(SCC(=O)Nc2c(C)n(C)n(-c3ccccc3)c2=O)o1` [CBK269042], the viability at 28.5 h, 10 µM was 90.9%.

With `CSc1nnc(-c2sccc2OCc2ccc(Cl)cc2Cl)n1C` [CBK067693], the viability at 28.5 h, 10 µM stood at 111%.

On to `FC(F)(F)c1ccnc(Sc2nc[nH]n2)n1` [CBK093806], for which the viability at 28.5 h, 10 µM is 93.1%.

On to `COc1ccc(C[C@@]23CC[C@H](NC(=O)NCCc4ccccc4)C[C@@H]2N(C)CC3)cc1` [CBK024127], for which the viability at 28.5 h, 10 µM turned out to be 95.2%.

Take `CCOC(=O)N1CCN(Cc2ccc(OCc3nccn3C)cc2)CC1` [CBK305413]: the viability at 28.5 h, 10 µM worked out at 94%.

With `N#Cc1cccc(C(=O)NCCc2nnc3n2CCCCC3)c1` [CBK259813], the viability at 28.5 h, 10 µM worked out at 105%.

In the case of `O=C(NC(c1ccc2c(c1)CCO2)C1CC(O)C1)c1cccc(=O)[nH]1` (stereo not drawn) [CBK307463], the viability at 28.5 h, 10 µM came out at 86.2%.

For the compound `O=c1oc2cc(S(=O)(=O)NCc3ccco3)ccc2c2ccc(S(=O)(=O)NCc3ccco3)cc12` [CBK267177], the viability at 28.5 h, 10 µM was found to be 96.5%.

Turning to `CC1(C)OC(NC2CC3CCC2C3)=NC1=O` (stereo not drawn) [CBK092237], the viability at 28.5 h, 10 µM came to 82.8%.

For `Nc1ncc(-c2ccc(C(=O)N3CCOCC3)cc2)nc1-c1ccsc1` [CBK200422], the viability at 28.5 h, 10 µM is 110%.

As for `CC(NC(=O)c1ccc(-n2ccnc2)c(-n2cccc2)c1)c1ccco1` (stereo not drawn) [CBK284808], the viability at 28.5 h, 10 µM turned out to be 98%.

On to `CCCCC(c1cccnc1)N(C)C(=O)c1cnc(C)c(C)c1` (stereo not drawn) [CBK307121], for which the viability at 28.5 h, 10 µM was determined as 103%.

On to `CC(C)(C)c1csc(NC(=O)C2CC(=O)N(C3CCCC3)C2)n1` (stereo not drawn) [CBK175544], for which the viability at 28.5 h, 10 µM was found to be 105%.

As to `O=C(c1cccnc1)N1CCN(Cc2cccc([N+](=O)[O-])c2)CC1` [CBK263020], the viability at 28.5 h, 10 µM worked out at 114%.

Regarding `CCOc1cc2c(cc1NS(=O)(=O)c1cc(C(=O)O)ccc1C)OC(C)C2` (stereo not drawn) [CBK296711], the viability at 28.5 h, 10 µM was 101%.

Take `Cc1cc(Sc2ncnc(N)c2[N+](=O)[O-])ncn1` [CBK267235]: the viability at 28.5 h, 10 µM is 36.7%.

With `COc1cc(-c2nc3ncccc3cc2NS(C)(=O)=O)cc(OC)c1OC` [CBK085697], the viability at 28.5 h, 10 µM came to 92.7%.

In the case of `CC1CN(c2cc(CNCc3cnn4ccccc34)ccn2)CCO1` (stereo not drawn) [CBK304018], the viability at 28.5 h, 10 µM stood at 84.1%.

As to `O=C(CSc1nnc2sc3ccccc3n12)N1N=CCC1c1ccccc1` (stereo not drawn) [CBK266527], the viability at 28.5 h, 10 µM worked out at 87.1%.

As to `Cc1nnc(SCC(=O)Nc2nnc(C(C)C)s2)[nH]c1=O` [CBK022107], the viability at 28.5 h, 10 µM came to 87%.

Take `Cn1ccc(C2CCCCCN2C(=O)Cc2cccs2)n1` (stereo not drawn) [CBK283047]: the viability at 28.5 h, 10 µM is 86.5%.

For `CCOc1ccc(S(=O)(=O)N2CCCN(Cc3cccc(C(F)(F)F)c3)CC2)c2cccnc12` [CBK062760], the viability at 28.5 h, 10 µM was 84.3%.

As to `Cc1ccc(SC(C)C(=O)Nc2cc(Cl)ccc2O)cc1` (stereo not drawn) [CBK268610], the viability at 28.5 h, 10 µM stood at 87.9%.

On to `CN1CCN(Cc2nc3c(c(=O)n(C)c(=O)n3C)n2Cc2ccc(Br)cc2)CC1` [CBK269310], for which the viability at 28.5 h, 10 µM was 87.9%.

For the compound `N=C(SC1CC(=O)N(c2ccc(C(=O)O)cc2)C1=O)N1N=C(c2ccccc2)CC1c1ccccc1` (stereo not drawn) [CBK262446], the viability at 28.5 h, 10 µM was determined as 90.9%.

With `CCC(=O)NC(N(Cc1ccccc1)Cc1ccccc1)C(Cl)(Cl)Cl` (stereo not drawn) [CBK261022], the viability at 28.5 h, 10 µM is 90.9%.

On to `COC(C(=O)NCc1sc(-c2ccccc2)nc1C)c1ccccc1` (stereo not drawn) [CBK092362], for which the viability at 28.5 h, 10 µM is 93.1%.

On to `CC1CCc2n[nH]c(C(=O)N3CCc4ncc(Cl)cc4C3)c2C1` (stereo not drawn) [CBK284874], for which the viability at 28.5 h, 10 µM came out at 93.6%.

With `CC1CN(CC(=O)NC(C)(C)c2ccccc2)CC(C)N1` (stereo not drawn) [CBK051693], the viability at 28.5 h, 10 µM was 83.8%.

As to `O=S(=O)(c1ccc(F)c(Cl)c1)N1CCCN(Cc2ccccc2)CC1` [CBK045211], the viability at 28.5 h, 10 µM amounted to 101%.

`O=C(c1ccc2occc2c1)N1CCCC2(CCN(C(=O)c3cc(F)c(F)cc3F)C2)C1` (stereo not drawn) [CBK137071]: the viability at 28.5 h, 10 µM was determined as 90.1%.

`CC(C)Cc1cc(CNC(=O)Nc2cc(-c3cccnc3)nn2C)no1` [CBK307048]: the viability at 28.5 h, 10 µM came out at 84.9%.

On to `CC1CCN(S(=O)(=O)c2ccc(NC(=O)C3=COCCO3)cc2)CC1` [CBK295332], for which the viability at 28.5 h, 10 µM stood at 102%.

`Cc1cc(C2CCCCCN2C(=O)c2ccc(F)cc2)on1` (stereo not drawn) [CBK285447]: the viability at 28.5 h, 10 µM came to 106%.

As to `Cc1c(F)cccc1CNCCNC(=O)OC(C)(C)C` [CBK056700], the viability at 28.5 h, 10 µM is 95.7%.

On to `Cc1c2cn[nH]c(=O)c2c(C)n1-c1ccccc1` [CBK018349], for which the viability at 28.5 h, 10 µM came out at 98.3%.

With `COCC(=O)N1CCC(c2onc3c2CC(C)CC3)CC1` (stereo not drawn) [CBK284599], the viability at 28.5 h, 10 µM was 89.9%.

As to `CC1=Nc2c(cnn2-c2ccccc2)C2=NCCCN12` [CBK287928], the viability at 28.5 h, 10 µM was 91.6%.

Regarding `Cc1cc(=O)c2ccccc2n1CC(=O)N(C)CC1CCCCO1` (stereo not drawn) [CBK306960], the viability at 28.5 h, 10 µM is 94.4%.

Turning to `S=C(NCCN1CCCCC1)NCc1ccco1` [CBK268171], the viability at 28.5 h, 10 µM turned out to be 107%.

For `Cc1onc(-c2ccccc2Cl)c1C(=O)Nc1ccc(S(=O)(=O)N2CCC(C)CC2)cc1` [CBK265463], the viability at 28.5 h, 10 µM came to 107%.

As for `COc1cc(/C=C2/SC(=O)NC2=O)cc(I)c1O` [CBK100075], the viability at 28.5 h, 10 µM amounted to 92.1%.

Take `CCN1CC2(CCN(Cc3nc4ccccc4s3)CC2)c2ccccc21` [CBK136993]: the viability at 28.5 h, 10 µM turned out to be 108%.

In the case of `c1ncc(N2CCCC2)nc1OCCN1CCOCC1` [CBK113430], the viability at 28.5 h, 10 µM was determined as 89.1%.

In the case of `Fc1cccc(-c2nccnc2NCc2cccnc2)c1` [CBK037633], the viability at 28.5 h, 10 µM amounted to 88.3%.

For `Cc1ccc2c(c1)c(C(=O)N1CCn3nc(CO)cc3C1)nn2C` [CBK307134], the viability at 28.5 h, 10 µM was determined as 104%.

As to `Cc1nc2c(c(N(C)C)n1)CCN(C(=O)c1cnn(C(C)C)c1)C2` [CBK307083], the viability at 28.5 h, 10 µM was found to be 109%.

For `CSc1ncc(Cl)c(C(=O)Nc2nnc(C)s2)n1` [CBK268920], the viability at 28.5 h, 10 µM is 90.1%.

For `CN(C)S(=O)(=O)c1ccc(Cl)c(C(=O)Nc2cccc([N+](=O)[O-])c2)c1` [CBK265721], the viability at 28.5 h, 10 µM stood at 103%.

In the case of `CCc1c(C)nc2ccccc2c1SC[C@H](NC(C)=O)C(=O)O` [CBK153459T], the viability at 28.5 h, 10 µM stood at 99.2%.

As for `O=C(NCc1ccc(-c2csnn2)cc1)c1cccnc1` [CBK149309], the viability at 28.5 h, 10 µM came out at 87%.

For the compound `COc1ccccc1CN(Cc1cccnc1)C(=O)NC(C)C(C)C` (stereo not drawn) [CBK307672], the viability at 28.5 h, 10 µM was found to be 85.2%.

Take `O=C(CSc1ccccc1)Nc1cccc(NC(=O)c2cccs2)c1` [CBK266788]: the viability at 28.5 h, 10 µM turned out to be 96.7%.

Take `[O-][n+]1cc(-c2ccccc2)[n+]([O-])c2c1CCCC2` [CBK264847]: the viability at 28.5 h, 10 µM turned out to be 98.7%.

For `COc1ccc(CCNC(=O)N2CCN(c3ccccc3)CC2)cc1` [CBK155199], the viability at 28.5 h, 10 µM was found to be 96.8%.

Turning to `CN(C)CCNc1c2c(nc3ccccc13)CCC2` [CBK263732C], the viability at 28.5 h, 10 µM turned out to be 98.1%.

On to `CN1CCN(C(=O)CNC(=O)CNS(=O)(=O)c2ccccc2)CC1` [CBK268651], for which the viability at 28.5 h, 10 µM came out at 90.9%.

Consider `c1cnc2[nH]c(C3CC3)c(CN3CCN4CCCCC4C3)c2c1` (stereo not drawn) [CBK285313], for which the viability at 28.5 h, 10 µM was determined as 81.5%.

Take `Cc1nc2ccc(NC(=S)N3CCN(c4ccccn4)CC3)cc2nc1C` [CBK267227]: the viability at 28.5 h, 10 µM came out at 67.1%.

Regarding `Cc1ccc(C(=O)N2CCN(S(=O)(=O)c3sc(C(=O)O)c(C)c3C(=O)O)CC2)s1` [CBK297150], the viability at 28.5 h, 10 µM came out at 84.8%.

Turning to `Cc1cc(=O)[nH]c(SCC(=O)O)c1C#N` [CBK019224], the viability at 28.5 h, 10 µM was 116%.

(Values after paper PMC12040169 (PLOS Biology, 2025).)
